According to patent US9546164B2 (GENENTECH, INC., priority 2013, dated 2017):
Structures can show the parent of a compound that is named as a salt. Where two headings read alike, the source gives them in different places.

Target: hNav1.7 (Homo sapiens (Human), UniProt Q15858)
Assay: Tritiated sulfonamide competitive binding to membranes from cells expressing hNav1.7 and the β1 subunit;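 further: Filter-bound radioactivity counted by liquid scintillation, nonspecific binding defined with excess unlabelled ligand, IC50 fitted to percent inhibition of specific binding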
[1] = read-out: Ligand Binding Assay, 100 pM [3H]compound, membranes with hNav1.7 and β1 subunit, 18 h, room temperature

Chain of hNav1.7 (Q15858 other isoform, or with tags, fused parts or gaps): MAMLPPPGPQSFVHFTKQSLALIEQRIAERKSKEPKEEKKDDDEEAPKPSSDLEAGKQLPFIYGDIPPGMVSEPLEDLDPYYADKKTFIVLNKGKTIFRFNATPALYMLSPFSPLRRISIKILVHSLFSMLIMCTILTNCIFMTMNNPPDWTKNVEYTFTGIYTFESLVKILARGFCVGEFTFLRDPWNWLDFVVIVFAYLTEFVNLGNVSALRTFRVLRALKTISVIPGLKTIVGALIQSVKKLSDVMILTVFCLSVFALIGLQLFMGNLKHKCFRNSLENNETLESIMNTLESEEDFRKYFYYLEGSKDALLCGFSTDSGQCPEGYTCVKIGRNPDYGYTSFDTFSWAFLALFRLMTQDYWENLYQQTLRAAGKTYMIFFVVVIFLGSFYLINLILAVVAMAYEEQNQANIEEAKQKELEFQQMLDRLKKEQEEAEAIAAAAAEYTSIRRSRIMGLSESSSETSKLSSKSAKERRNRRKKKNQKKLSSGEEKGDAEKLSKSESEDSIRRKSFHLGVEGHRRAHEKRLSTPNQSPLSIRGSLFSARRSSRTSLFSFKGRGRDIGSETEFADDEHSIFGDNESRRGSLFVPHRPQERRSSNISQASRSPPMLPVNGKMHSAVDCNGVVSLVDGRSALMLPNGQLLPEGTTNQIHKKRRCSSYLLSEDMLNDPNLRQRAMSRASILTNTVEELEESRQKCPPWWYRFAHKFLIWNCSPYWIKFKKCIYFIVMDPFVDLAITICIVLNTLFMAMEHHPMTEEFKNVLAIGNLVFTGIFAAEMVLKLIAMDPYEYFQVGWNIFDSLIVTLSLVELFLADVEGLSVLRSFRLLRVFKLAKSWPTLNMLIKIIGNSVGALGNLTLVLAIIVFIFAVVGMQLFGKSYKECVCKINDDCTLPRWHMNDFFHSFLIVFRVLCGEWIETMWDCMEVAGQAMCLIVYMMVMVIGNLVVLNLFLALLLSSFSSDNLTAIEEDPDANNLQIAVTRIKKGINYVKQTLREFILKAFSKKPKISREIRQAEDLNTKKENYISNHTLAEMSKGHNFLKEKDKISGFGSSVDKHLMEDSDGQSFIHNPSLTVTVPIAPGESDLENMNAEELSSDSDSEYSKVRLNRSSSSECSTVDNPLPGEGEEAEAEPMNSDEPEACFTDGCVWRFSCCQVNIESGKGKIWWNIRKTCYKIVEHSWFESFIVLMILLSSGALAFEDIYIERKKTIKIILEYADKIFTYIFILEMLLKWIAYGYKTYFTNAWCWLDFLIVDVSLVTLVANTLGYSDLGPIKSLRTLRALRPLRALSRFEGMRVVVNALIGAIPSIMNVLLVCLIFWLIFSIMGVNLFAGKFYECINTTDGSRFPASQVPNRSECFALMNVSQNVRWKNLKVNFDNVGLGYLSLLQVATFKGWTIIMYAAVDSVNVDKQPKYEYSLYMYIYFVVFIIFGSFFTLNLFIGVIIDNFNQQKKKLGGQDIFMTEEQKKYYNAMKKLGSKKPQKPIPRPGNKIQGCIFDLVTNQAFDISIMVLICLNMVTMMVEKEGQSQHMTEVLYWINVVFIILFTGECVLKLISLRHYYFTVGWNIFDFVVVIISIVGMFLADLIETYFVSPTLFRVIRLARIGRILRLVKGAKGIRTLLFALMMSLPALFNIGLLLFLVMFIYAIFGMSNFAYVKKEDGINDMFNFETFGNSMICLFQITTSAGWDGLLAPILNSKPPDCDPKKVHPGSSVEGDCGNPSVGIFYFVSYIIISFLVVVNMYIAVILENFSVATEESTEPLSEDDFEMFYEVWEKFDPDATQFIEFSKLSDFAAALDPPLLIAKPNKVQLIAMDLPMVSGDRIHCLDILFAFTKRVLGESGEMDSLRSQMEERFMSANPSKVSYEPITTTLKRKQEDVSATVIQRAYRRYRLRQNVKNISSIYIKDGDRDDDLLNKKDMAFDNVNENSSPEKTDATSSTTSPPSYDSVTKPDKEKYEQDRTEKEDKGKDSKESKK
Chain of hNav1.7 (Q07699 19-218 partner): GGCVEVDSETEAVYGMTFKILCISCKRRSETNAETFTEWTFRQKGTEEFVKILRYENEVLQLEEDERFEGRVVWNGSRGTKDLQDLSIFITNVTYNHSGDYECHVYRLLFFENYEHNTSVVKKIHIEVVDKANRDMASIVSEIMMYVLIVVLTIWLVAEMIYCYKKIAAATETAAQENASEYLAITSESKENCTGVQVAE

Row | SMILES | IC50 [1] [nM] | IC50 [nM]
1 | CS(=O)(=O)NC(=O)c1cc(C2CC2)c(OCC2CCN(C(c3cc(Cl)cc(Cl)c3)C(F)F)CC2)cc1F (stereo in doubt) [Example 225, (S)-5-cyclopropyl-4-((1-(1-(3,5-dichlorophenyl)-2,2-difluoroethyl)piperidin-4-yl)methoxy)-2-fluoro-N-(methylsulfonyl)benzamide] | 17 | –
2 | O=C(NS(=O)(=O)N1CCC1)c1cc(C2CC2)c(O[C@@H]2CCCN(CC3CCCCC3)C2)cc1F [Example 11, (R)—N-(azetidin-1-ylsulfonyl)-4-((1-(cyclohexylmethyl)piperidin-3-yl)oxy)-5-cyclopropyl-2-fluorobenzamide] | – | 47.4
3 | CS(=O)(=O)NC(=O)c1cc(C2CC2)c(OCC2CCN(Cc3ccccc3)CC2)cc1F [Example 87, 4-((1-Benzylpiperidin-4-yl)methoxy)-5-cyclopropyl-2-fluoro-N-(methylsulfonyl)benzamide] | 278 | –
4 | C[C@H](c1ccc(Cl)c(Cl)c1)N1CCC(COc2cc(F)c(C(=O)NS(C)(=O)=O)cc2C2CC2)CC1 (single isomer, unassigned) [Example 214] | 3.1 | –
5 | CS(=O)(=O)NC(=O)c1cc(C2CC2)c(CN2CCC(CF)(c3ccc(F)cc3)CC2)cc1F [Example 513, 5-cyclopropyl-2-fluoro-4-((4-(fluoromethyl)-4-(4-fluorophenyl)piperidin-1-yl)methyl)-N-(methylsulfonyl)benzamide, trifluoroacetic acid salt] | – | 69.8
6 | Cc1ccc(CN2CCC[C@@H](Oc3cc(F)c(C(=O)NS(=O)(=O)C4CC4)cc3C3CC3)C2)cc1 [Example 32, (R)-5-cyclopropyl-N-(cyclopropylsulfonyl)-2-fluoro-4-((1-(4-methylbenzyl)piperidin-3-yl)oxy)benzamide] | – | 5.4
7 | CS(=O)(=O)NC(=O)c1cc(C2CC2)c(OCC2CN([C@H](c3ccccc3)c3ccc(S(C)(=O)=O)cc3)C2)cc1F [Example 96, (R)-5-Cyclopropyl-2-fluoro-N-(methylsulfonyl)-4-((1-((4-(methylsulfonyl)phenyl)(phenyl)methyl)azetidin-3-yl)methoxy)benzamide] | 429 | –
8 | CS(=O)(=O)NC(=O)c1cc(C2CC2)c(OCC2CN([C@H](c3ccccc3)c3ccccc3F)C2)cc1F [Example 125, (R)-5-Cyclopropyl-2-fluoro-4-((1-((2-fluorophenyl)(phenyl)methyl)azetidin-3-yl)methoxy)-N-(methylsulfonyl)benzamide] | 25 | –
9 | CS(=O)(=O)NC(=O)c1cc(C2CC2)c(O[C@@H]2CCCN(Cc3ccccc3Cl)C2)cc1F [Example 24, (R)-4-((1-(2-chlorobenzyl)piperidin-3-yl)oxy)-5-cyclopropyl-2-fluoro-N-(methylsulfonyl)benzamide] | – | 6
10 | CS(=O)(=O)NC(=O)c1cc(C2CC2)c(OCC2CN([C@@H](c3ccccc3)c3cc(Cl)cc(Cl)c3)C2)cc1F [Example 142, (S)-5-Cyclopropyl-4-((1-((3,5-dichlorophenyl)(phenyl)methyl)azetidin-3-yl)methoxy)-2-fluoro-N-(methylsulfonyl)benzamide] | 6.57 | –
11 | O=C(NS(=O)(=O)C1CC1)c1cc(C2CC2)c(CN2CCC(Oc3ccc(C(F)(F)F)cc3)CC2)cc1F [Example 500, 5-cyclopropyl-N-(cyclopropylsulfonyl)-2-fluoro-4-((4-(4-(trifluoromethyl)phenoxy)piperidin-1-yl)methyl)benzamide] | – | 7.8
12 | O=C(NS(=O)(=O)N1CCC1)c1cc(C2CC2)c(OCC2CCN(C3(c4cc(Cl)cc(Cl)c4)COC3)CC2)cc1F [Example 176] | 9.1 | –
13 | CS(=O)(=O)NC(=O)c1cc(C2CC2)c(CN2[C@@H]3CC[C@H]2C[C@@H](Oc2cc(Cl)cc(OC(F)(F)F)c2)C3)cc1F [Example 560, 4-(((1R,3r,5S)-3-(3-chloro-5-(trifluoromethoxy)phenoxy)-8-azabicyclo[3.2.1]octan-8-yl)methyl)-5-cyclopropyl-2-fluoro-N-(methylsulfonyl)benzamide, trifluoroacetic acid salt] | 2.8 | –
14 | O=C(NS(=O)(=O)C1CC1)c1cc(C2CC2)c(CN2CCC[C@@H](Oc3cc(Cl)cc(Cl)c3)C2)cc1F [Example 55, (R)-5-cyclopropyl-N-(cyclopropylsulfonyl)-4-((3-(3,5-dichlorophenoxy)piperidin-1-yl)methyl)-2-fluorobenzamide] | 23.3 | –
15 | CS(=O)(=O)NC(=O)c1cc(C2CC2)c(OCC2CN([C@H](c3ccccc3)c3ccncc3)C2)cc1F [Example 153, (R)-5-Cyclopropyl-2-fluoro-N-(methylsulfonyl)-4-((1-(phenyl(pyridin-4-yl)methyl)azetidin-3-yl)methoxy)benzamide] | 439 | –
16 | CS(=O)(=O)NC(=O)c1cc(C2CC2)c(O[C@@H]2CCCN(Cc3c(Cl)cccc3Cl)C2)cc1F [Example 10, (R)-5-cyclopropyl-4-((1-(2,6-dichlorobenzyl)piperidin-3-yl)oxy)-2-fluoro-N-(methylsulfonyl)benzamide] | – | 4.1
17 | CS(=O)(=O)NC(=O)c1cc(C2CC2)c(OCC2CN([C@H](c3ccccc3)c3cccc(C#N)c3)C2)cc1F [Example 109, (R)-4-((1-((3-Cyanophenyl)(phenyl)methyl)azetidin-3-yl)methoxy)-5-cyclopropyl-2-fluoro-N-(methylsulfonyl)benzamide] | 53.6 | –
18 | COCCS(=O)(=O)NC(=O)c1cc(C2CC2)c(OCC2CN(C(c3ccccc3)c3ccccc3)C2)cc1F [Example 61, 4-((1-benzhydrylazetidin-3-yl)methoxy)-5-cyclopropyl-2-fluoro-N-((2-methoxyethyl)sulfonyl)benzamide] | 57 | –

The remaining lines, values ahead:

Row | IC50 [1] [nM] | IC50 [nM] | SMILES
19 | 5.4 | – | CCS(=O)(=O)NC(=O)c1cc(C2CC2)c(OCC2CCN([C@H](COC)c3ccc(Cl)cc3Cl)CC2)cc1F [Example 286, (S)-5-cyclopropyl-4-((1-(1-(2,4-dichlorophenyl)-2-methoxyethyl)piperidin-4-yl)methoxy)-N-(ethylsulfonyl)-2-fluorobenzamide]
20 | 2.9 | – | CS(=O)(=O)NC(=O)c1cc(C2CC2)c(OCC2CCN(Cc3ccc(Cl)cc3C(F)(F)F)CC2)cc1F [Example 579, 4-((1-(4-chloro-2-(trifluoromethyl)benzyl)piperidin-4-yl)methoxy)-5-cyclopropyl-2-fluoro-N-(methylsulfonyl)benzamide]
21 | 3.1 | – | CS(=O)(=O)NC(=O)c1cc(C2CC2)c(O[C@@H]2CCCN(Cc3ccc(-c4ccccc4)cc3)C2)cc1F [Example 426, (R)-4-((1-([1,1′-biphenyl]-4-ylmethyl)piperidin-3-yl)oxy)-5-cyclopropyl-2-fluoro-N-(methylsulfonyl)benzamide, trifluoroacetic acid salt]
22 | 6 | – | C[C@H](c1ccc(F)cc1)N1CCC[C@@H](Oc2cc(F)c(C(=O)NS(=O)(=O)C3CC3)cc2C2CC2)C1 [Example 317, 5-cyclopropyl-N-(cyclopropylsulfonyl)-2-fluoro-4-(((R)-1-((R)-1-(4-fluorophenyl)ethyl)piperidin-3-yl)oxy)benzamide]
23 | 20 | – | COC[C@H](c1cccc(Cl)c1)N1CCC(COc2cc(F)c(C(=O)NS(C)(=O)=O)cc2C2CC2)CC1 (single isomer, unassigned) [Example 263]
24 | 1.9 | – | CS(=O)(=O)NC(=O)c1cc(C2CC2)c(OCC2CCN(C(c3cc(Cl)cc(Cl)c3)C(F)(F)F)CC2)cc1F (centres unmarked) [Example 299, 5-cyclopropyl-4-((1-(1-(3,5-dichlorophenyl)-2,2,2-trifluoroethyl)piperidin-4-yl)methoxy)-2-fluoro-N-(methylsulfonyl)benzamide]
25 | 5.1 | – | CS(=O)(=O)NC(=O)c1cc(C2CC2)c(OCC2CCN(Cc3ccc(Br)c(Cl)c3)CC2)cc1F [Example 587, 4-((1-(4-bromo-3-chlorobenzyl)piperidin-4-yl)methoxy)-5-cyclopropyl-2-fluoro-N-(methylsulfonyl)benzamide]
26 | – | 87.4 | O=C(NS(=O)(=O)C1CC1)c1cc(C2CC2)c(CN2CCC(Oc3ccccc3C(F)(F)F)CC2)cc1F [Example 498, 5-cyclopropyl-N-(cyclopropylsulfonyl)-2-fluoro-4-((4-(2-(trifluoromethyl)phenoxy)piperidin-1-yl)methyl)benzamide]
27 | 2.9 | – | O=C(NS(=O)(=O)C1CC1)c1cc(C2CC2)c(OCC2CCN(c3cc(C(F)(F)F)c(Cl)cn3)CC2)cc1F [Example 555, 4-((1-(5-chloro-4-(trifluoromethyl)pyridin-2-yl)piperidin-4-yl)methoxy)-5-cyclopropyl-N-(cyclopropylsulfonyl)-2-fluorobenzamide]
28 | 210 | – | CS(=O)(=O)NC(=O)c1cc(C2CC2)c(OC[C@H]2CCN(Cc3cc(Cl)cc(Cl)c3)C(=O)C2)cc1F (single isomer, unassigned) [Example 235]
29 | 7.3 | – | CS(=O)(=O)NC(=O)c1cc(C2CC2)c(O[C@@H]2CCCN(Cc3cccc(OC(F)(F)F)c3)C2)cc1F [Example 437, (R)-5-cyclopropyl-2-fluoro-N-(methylsulfonyl)-4-((1-(3-(trifluoromethoxy)benzyl)piperidin-3-yl)oxy)benzamide, trifluoroacetic acid salt]
30 | 119 | – | CC(C)c1nc(CN2CCC(COc3cc(F)c(C(=O)NS(=O)(=O)C4CC4)cc3C3CC3)CC2)cs1 [Example 355, 5-cyclopropyl-N-(cyclopropylsulfonyl)-2-fluoro-4-((1-((2-isopropylthiazol-4-yl)methyl)piperidin-4-yl)methoxy)benzamide trifluoroacetic acid salt]
31 | 4.9 | – | CS(=O)(=O)NC(=O)c1cc(C2CC2)c(OC[C@H]2CCCN(Cc3cc(Cl)cc(Cl)c3)C2)cc1F [Example 336, (S)-5-cyclopropyl-4-((1-(3,5-dichlorobenzyl)piperidin-3-yl)methoxy)-2-fluoro-N-(methylsulfonyl)benzamide]
32 | 6.5 | – | CCS(=O)(=O)NC(=O)c1cc(C2CC2)c(OCCC2CCN(Cc3cc(Cl)cc(Cl)c3)CC2)cc1F [Example 303, 5-cyclopropyl-4-(2-(1-(3,5-dichlorobenzyl)piperidin-4-yl)ethoxy)-N-(ethylsulfonyl)-2-fluorobenzamide, trifluoroacetic acid salt]
